US20110152326A1, “SUBSTITUTED ARYLOXOETHYL CYCLOPROPANECARBOXAMIDE COMPOUNDS AS VR1 RECEPTOR ANTAGONISTS” (priority 2005, published 2011)

Target: T1, human VR1 receptors (Homo sapiens, UniProt Q8NER1)
T1 construct: host or cells: cells that highly express human VR1 receptors
Test: Human VR1 antagonist assay, Ca2+ imaging, capsaicin stimulation
Assay type: cell-based
Conditions: human VR1 expressing cells; concentration required to reduce capsaicin-evoked Ca2+ influx by 50%; capsaicin 300 nM; read-out: hVR1 IC50
Source text: VR1 antagonistic activity can be determined by the Ca^2+ imaging assay using human VR1 highly expressing cells. The cells that highly express human VR1 receptors are obtainable from several different conventional methods. The one standard method is cloning from human Dorsal Root Ganglion (DRG) or kidney according to the methods such as described in the journal article; Nature, 389, pp 816-824, 1997. Alternatively VR1 receptors highly expressing human keratinocytes are also known and published in the journal article (Biochemical and Biophysical Research Communications, 291, pp 124-129, 2002). […] Further more, the method to up regulate human VR1 gene, which is usually a silent gene or don't produce detectable level of VR1 receptors, is also available to obtain propriety cells. Such genetic modification method was described in detail; Nat. Biotechnol., 19, pp 440-445, 2001.
The cells that express human VR1 receptors were maintained in culture flask at 37° C. in an environment containing 5% CO2 until use in the assay. The intracellular Ca^2+ imaging assay to determine VR1 antagonistic activities were done by following procedures.
The culture medium was removed from the flask and fura-2/AM fluorescent calcium indicator was added to the flask at a concentration of 5 μM in the medium. The flask was placed in CO2 incubator and incubated for 1 hour. Then the cells expressing the human VR1 receptors were detached from the flask follow by washing with phosphate buffer saline, PBS(−) and re-suspended in assay buffer. The 80 μl of aliquot of cell suspension (3.75×10^5 cells/ml) was added to the assay plate and the cells were spun down by centrifuge (950 rpm, 20° C., 3 minutes).
The capsaicin-induced changes in the intracellular calcium concentration were monitored using FDSS 6000 (Hamamatsu Photonics, Japan), a fluorometric imaging system. The cell suspension in Krebs-Ringer HEPES (KRH) buffer (115 mM NaCl, 5.4 mM KCl, 1 mM MgSO4, 1.8 mM CaCl2, 11 mM D-Glucose, 25 mM HEPES, 0.96 mM Na2HPO4, pH 7.3) were pre-incubated with varying concentrations of the test compounds or KRH buffer (buffer control) for 15 minutes at room temperature under the dark condition. Then capsaicin solution, which gives 300 nM in assay mixture, was automatically added to the assay plate by the FDSS 6000.
The monitoring of the changes in the fluorescence signals (λex=340 nm/380 nm, λem=510-520 nm) was initiated at 1 minute prior to the addition of capsaicin solution or acidic buffer and continued for 5 minute.

T1 sequence (Q8NER1 whole entry): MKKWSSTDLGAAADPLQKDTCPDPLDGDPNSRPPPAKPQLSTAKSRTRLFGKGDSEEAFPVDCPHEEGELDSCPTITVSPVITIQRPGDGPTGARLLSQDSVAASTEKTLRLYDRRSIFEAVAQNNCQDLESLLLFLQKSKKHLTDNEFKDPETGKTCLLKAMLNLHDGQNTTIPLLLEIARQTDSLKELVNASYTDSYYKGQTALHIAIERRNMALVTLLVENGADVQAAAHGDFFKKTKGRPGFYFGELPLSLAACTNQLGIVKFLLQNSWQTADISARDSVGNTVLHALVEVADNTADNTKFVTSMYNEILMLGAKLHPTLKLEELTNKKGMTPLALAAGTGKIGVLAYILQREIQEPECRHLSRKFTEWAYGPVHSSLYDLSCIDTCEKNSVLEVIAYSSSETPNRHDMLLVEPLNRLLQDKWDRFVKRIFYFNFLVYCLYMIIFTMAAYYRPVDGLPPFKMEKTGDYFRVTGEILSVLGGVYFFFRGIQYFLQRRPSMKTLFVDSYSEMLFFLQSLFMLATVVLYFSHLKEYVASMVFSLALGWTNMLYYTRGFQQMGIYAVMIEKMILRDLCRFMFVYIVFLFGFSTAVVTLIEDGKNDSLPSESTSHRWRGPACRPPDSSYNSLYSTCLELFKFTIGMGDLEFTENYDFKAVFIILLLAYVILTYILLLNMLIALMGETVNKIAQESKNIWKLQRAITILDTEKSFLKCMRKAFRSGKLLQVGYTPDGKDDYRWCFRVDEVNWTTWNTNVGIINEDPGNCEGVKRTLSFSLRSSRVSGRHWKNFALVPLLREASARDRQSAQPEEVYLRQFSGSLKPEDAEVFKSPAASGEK

SMILES | IC50 [nM]
Cc1cccnc1C(=O)CNC(=O)C1CC1c1ccc(C(C)(C)C)cc1 (stereo not shown) [Example 1, 2-(4-Tert-Butylphenyl)-N-[2-(3-Methylpyridin-2-yl)-2-Oxoethyl]Cyclopropanecarboxamide] | 102
COc1ccc(C)c(C(=O)CNC(=O)C2CC2c2ccc(C(C)(C)C)cc2)c1 (stereo not shown) [Example 2, 2-(4-Tert-Butylphenyl)-N-[2-(5-Methoxy-2-Methylphenyl)-2-Oxoethyl]Cyclopropanecarboxamide] | 1010
Cc1ccc(O)cc1C(=O)CNC(=O)C1CC1c1ccc(C(C)(C)C)cc1 (stereo not shown) [Example 3, 2-(4-Tert-Butylphenyl)-N-[2-(5-Hydroxy-2-Methylphenyl)-2-Oxoethyl]Cyclopropanecarboxamide] | 704
Cc1cccnc1C(=O)CNC(=O)C1CC1c1ccc(C(C)(C)C)c(F)c1 (stereo not shown) [Example 4, 2-(4-Tert-Butyl-3-Fluorophenyl)-N-[2-(3-Methylpyridin-2-yl)-2-Oxoethyl]Cyclopropanecarboxamide] | 99
Cc1cccnc1C(=O)CNC(=O)C1CC1c1ccc(C(C)(C)C(F)(F)F)cc1 (stereo not shown) [Example 5, N-[2-(3-Methylpyridin-2-yl)-2-Oxoethyl]-2-[4-(2,2,2-Trifluoro-1,1-Dimethylethyl)Phenyl]Cyclopropanecarboxamide] | 111
Cc1cccnc1C(=O)CNC(=O)C1CC1(C)c1ccc(C(C)(C)C)cc1 (stereo not shown) [Example 6, 2-(4-Tert-Butylphenyl)-2-Methyl-N-[2-(3-Methylpyridin-2-yl)-2-Oxoethyl]Cyclopropanecarboxamide] | 134
Cc1cccnc1C(=O)CNC(=O)C1CC1c1ccc(C(C)(C)C)c(Cl)c1 (stereo not shown) [Example 7, 2-(4-Tert-Butyl-3-Chlorophenyl)-N-[2-(3-Methylpyridin-2-yl)-2-Oxoethyl]Cyclopropanecarboxamide] | 92
CC(C)(C)c1ccc(C2CC2C(=O)NCC(=O)c2ncccc2C(F)(F)F)cc1F (stereo not shown) [Example 8, 2-(4-Tert-Butyl-3-Fluorophenyl)-N-[2-(3-Trifluoromethylpyridin-2-yl)-2-Oxoethyl]Cyclopropanecarboxamide] | 102

More lines, now with the values ahead:

IC50 [nM] | SMILES
306 | Cc1cccnc1C(=O)CNC(=O)C1C(c2ccc(C(C)(C)C)cc2)C1(F)F (stereo not shown) [Example 9, 3-(4-Tert-Butylphenyl)-2,2-Difluoro-N-[2-(3-Methylpyridin-2-yl)-2-Oxoethyl]Cyclopropanecarboxamide]
238 | Cn1ccnc1C(=O)CNC(=O)C1CC1c1ccc(C(C)(C)C)c(F)c1 (stereo not shown) [Example 10, 2-(4-Tert-Butyl-3-Fluorophenyl)-N-[2-(1-Methyl-1H-Imidazol-2-yl)-2-Oxoethyl]Cyclopropanecarboxamide]
451 | Cn1ccnc1C(=O)CNC(=O)C1CC1(C)c1ccc(C(C)(C)C(F)(F)F)cc1 (stereo not shown) [Example 11, 2-Methyl-N-[2-(1-Methyl-1H-Imidazol-2-yl)-2-Oxoethyl]-2-[4-(2,2,2-Trifluoro-1,1-Dimethylethyl)Phenyl]Cyclopropanecarboxamide]
340 | CCn1ccnc1C(=O)CNC(=O)C1CC1(C)c1ccc(C(C)(C)C(F)(F)F)cc1 (stereo not shown) [Example 12, N-[2-(1-Ethyl-1H-Imidazol-2-yl)-2-Oxoethyl]-2-Methyl-2-[4-(2,2,2-Trifluoro-1,1-Dimethylethyl)Phenyl]Cyclopropanecarboxamide]
69 | CCn1ccnc1C(=O)CNC(=O)C1CC1c1cc(F)c(C(C)(C)C(F)(F)F)c(F)c1 (stereo not shown) [Example 13, 2-[3,5-Difluoro-4-(2,2,2-Trifluoro-1,1-Dimethylethyl)Phenyl]-N-[2-(1-Ethyl-1H-Imidazol-2-yl)-2-Oxoethyl]Cyclopropanecarboxamide]
